Results taken from patent publication US10870647B2, “Imidazopyridine derivative, method for preparing same, and pharmaceutical composition containing same as active ingredient for preventing or treating cancer” (DAEGU-GYEONGBUK MEDICAL INNOVATION FOUNDATION, priority 2016, dated 2020).
Read-outs that look alike come from different tables or passages of the source.

What was measured:
Assay type in all cases: cell-based
FYN (MCP-1) = experiment: Cancer cell proliferation inhibition, MTS assay, 72 hours
Outline: (§1)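 Cells seeded at 3,000/well were cultured 24 h, then exposed 72 h to serially diluted compound from 50 μM top (0.05% DMSO). Viability was read by MTS/PMS at OD450 after 2 h at 37°C. IC50 was taken as 50% proliferation inhibition versus solvent control, from three data sets.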

Huh7 = experiment: as above; conditions: Homo sapiens, Huh-7
Outline: as §1

RET (LC2/ad-CDC6) = experiment: as above
Outline: as §1

SK-MEL-28 = experiment: as above; conditions: Homo sapiens
Outline: as §1

MDA-MB-231 = experiment: Real time cell proliferation, IncuCyte ZOOM, 72 hours
A375 = experiment: Cancer cell proliferation inhibition, CCK-8, 72 hours
Outline: (§2)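 A375 cells (2×10^3/well) attached overnight, then received 9 three-fold dilutions (0.0015-10 μM). K562 and Ba/F3-T315I (1×10^4/well) were given 9-point series (3-fold and 5-fold respectively), final 0-10 μM. After 72 h at 37°C, CCK-8 was added for 2 h; blank-subtracted OD450 gave IC50.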

K562 = experiment: as above
Outline: as §2

T315I (Ba/F3) = biological target: T1, T315I (Ba/F3) (Homo sapiens, UniProt P00519, T315I, cells depend on it); experiment: as above; conditions: read-out: T315I (Ba/F3) IC50
T1 construct: fused on or other part: P11274 (Breakpoint cluster region protein)
Outline: as §2

M-NFS-60 = experiment: as above
Experimental: MTS assay was performed to evaluate the cancer cell proliferation inhibition (cancer cell apoptosis) effect of the compounds of examples of the present invention. Particularly, the assay was performed using the cancer cell lines GIST-T1, GIST-T1/816, GIST-430, GIST-430/654, GIST-R1, GIST-R3, M-NFS-60, RetParental (Ba/F3), Retwt (Ba/F3), RetV804M (Ba/F3), RET (LC2/ad-CDC6), FYN (MCP-1), FYN (FN), MDA-MB-231, Huh7, K562, T315I(Ba/F3), SK-MEL-28 and A375. Cell culture was performed using a medium suitable for each cell line.
M-NFS-60 cell line was cultured in the complete growth medium prepared by adding 10% FBS, 0.05 mM 2-mercaptoethanol and 62 ng of human M-CSF to RPMI. When the confluence reached 80% in T-75 flask, the cells were collected in a 50 ml tube for seeding, followed by centrifugation at 800 rpm for 5 minutes. The cells were suspended in 10 mL of growth medium. The cell number was counted by using a hematocytometer to determine the necessary cell number and the medium volume for seeding. The cells were seeded in a 96-well plate at the density of 20000 cells/well (200 μL/well), followed by stabilization in a 37° C. CO2 incubator, while the compounds of the present invention were prepared. The compounds of the present invention were serially diluted with DMSO at the ratio of 1/3 with setting the maximum concentration at 1968 nM, which were loaded in a new V-bottom 96-well plate, resulting in the preparation of total 11 concentrations including the DMSO control. The cells that had been placed in the incubator were taken out, to which the compounds of the present invention were added (2 μl/well). The plate treated with the compounds was cultured in a 37° C. CO2 incubator for 72 hours. 72 hours later, the plate treated with the compounds was taken out, to which CCK-8 solution was treated (20 μl/well). After well mixing, the plate was further cultured in a 37° C. CO2 incubator for 2 hours. Then, OD450 was measured by using a microplate reader. To obtain accurate results, the wells displaying bubbles were eliminated from the measurement.

Compound | IC50 (FYN (MCP-1)) | IC50 (Huh7) | IC50 (RET (LC2/ad-CDC6); 72 h) | IC50 (SK-MEL-28) | IC50 (MDA-MB-231; Homo sapiens, MDA-MB-231, 72 h) | IC50 (A375; Homo sapiens, A-375, 72 h) | IC50 (K562; Homo sapiens, K562, 72 h) | GI50 (T315I (Ba/F3)) | IC50 (RET (LC2/ad-CDC6)) | IC50 (A375) | IC50 (K562) | IC50 (M-NFS-60) | IC50 (MDA-MB-231)
CCN1CCN(Cc2ccc(NC(=O)c3ccc(C)c(C#Cc4cnc5c(Nc6cnn(CC)c6)cccn45)c3)cc2C(F)(F)F)CC1 [Example 23, 3-((8-((1-ethyl-1H-pyrazol-4-yl)amino)imidazo[1,2-a]pyridin-3-yl)ethynyl)-N-(4-((4-ethylpiperazin-1-yl)methyl)-3-(trifluoromethyl)phenyl)-4-methylbenzamide] | 270 nM | 73.8 nM | < 10 nM | 917 nM | 342 nM | 142 nM | < 1 nM | 39 nM |  |  |  |  | 
Cc1ccc(C(=O)Nc2ccc(CN3CCN(C)[C@H](C)C3)c(C(F)(F)F)c2)cc1C#Cc1cnc2c(Nc3cnn(C(C)C)c3)cccn12 [Example 29, (R)—N-(4-((3,4-dimethylpiperazin-1-yl)methyl)-3-(trifluoromethyl)phenyl)-3-((8-((1-isopropyl-1H-pyrazol-4-yl)amino)imidazo[1,2-a]pyridin-3-yl)ethynyl)-4-methylbenzamide] | 3130 nM | 30 nM |  | 717 nM | 963 nM |  |  | 102 nM | < 100 nM | 292 nM | 5 nM |  | 
Cc1ccc(C(=O)Nc2ccc(CN3CCN(C)[C@H](C)C3)c(C(F)(F)F)c2)cc1C#Cc1cnc2c(Nc3cnn(C)c3)cccn12 [Example 31, (R)—N-(4-((3,4-dimethylpiperazin-1-yl)methyl)-3-(trifluoromethyl)phenyl)-4-methyl-3-((8-((1-methyl-1H-pyrazol-4-yl)amino)imidazo[1,2-a]pyridin-3-yl)ethynyl)benzamide] | 770 nM | 64 nM |  | 482 nM | 212 nM | 152 nM | < 1 nM | 54.2 nM |  |  |  | 63.6 nM | 
CCN1CCN(Cc2ccc(NC(=O)c3ccc(C)c(C#Cc4cnc5c(Nc6cnn(CCCN(C)C)c6)cccn45)c3)cc2C(F)(F)F)CC1 [Example 33, 3-((8-((1-(3-(dimethylamino)propyl)-1H-pyrazol-4-yl)amino)imidazo[1,2-a]pyridin-3-yl)ethynyl)-N-(4-((4-ethylpiperazin-1-yl)methyl)-3-(trifluoromethyl)phenyl)-4-methylbenzamide] | 2040 nM | 82 nM |  |  | 444 nM | 452 nM | < 1 nM | 156 nM |  |  |  | 32.1 nM | 
Cc1ccc(C(=O)Nc2ccc(CN3CCN(C)[C@H](C)C3)c(C(F)(F)F)c2)cc1C#Cc1cnc2c(Nc3cnn(CCCN(C)C)c3)cccn12 [Example 34, (R)-3-((8-((1-(3-(dimethylamino)propyl)-1H-pyrazol-4-yl)amino)imidazo[1,2-a]pyridin-3-yl)ethynyl)-N-(4-((3,4-dimethylpiperazin-1-yl)methyl)-3-(trifluoromethyl)phenyl)-4-methylbenzamide] | 9830 nM | 70 nM |  |  | 1010 nM | 903 nM | < 1 nM | 831 nM |  |  |  |  | 
Cc1ccc(C(=O)Nc2ccc(CN3CCC(N(C)C)C3)c(C(F)(F)F)c2)cc1C#Cc1cnc2c(Nc3cnn(CCCN(C)C)c3)cccn12 (stereo not shown) [Example 35, 3-((8-((1-(3-(dimethylamino)propyl)-1H-pyrazol-4-yl)amino)imidazo[1,2-a]pyridin-3-yl)ethynyl)-N-(4-((3-(dimethylamino)pyrrolidin-1-yl)methyl)-3-(trifluoromethyl)phenyl)-4-methylbenzamide] | 1120 nM | 66 nM |  |  | 1110 nM | 1280 nM | < 1 nM | 247 nM |  |  |  |  | 
Cc1ccc(C(=O)Nc2ccc(CN3CCC(F)(F)CC3)c(C(F)(F)F)c2)cc1C#Cc1cnc2c(Nc3cnn(C)c3)cccn12 [Example 52, N-(4-((4,4-difluoropiperidin-1-yl)methyl)-3-(trifluoromethyl)phenyl)-4-methyl-3-((8-((1-methyl-1H-pyrazol-4-yl)amino)imidazo[1,2-a]pyridin-3-yl)ethynyl)benzamide] | 9520 nM |  | > 10 nM |  | > 10000 nM | > 10000 nM | 16 nM | 195 nM |  |  |  |  | 
COCCn1cc(Nc2cccn3c(C#Cc4cc(C(=O)Nc5cc(C(C)(C)C(F)(F)F)on5)ccc4C)cnc23)cn1 [Example 58, 3-((8-((1-(2-methoxyethyl)-1H-pyrazol-4-yl)amino)imidazo[1,2-a]pyridin-3-yl)ethynyl)-4-methyl-N-(5-(1,1,1-trifluoro-2-methylpropan-2-yl)isoxazol-3-yl)benzamide] | 320 nM |  |  |  | 1300 nM | 1390 nM | 8 nM | 32.6 nM |  |  |  |  | 
CN1CCN(Cc2ccc(NC(=O)c3cccc(C#Cc4cnc5c(Nc6cnn(C)c6)cccn45)c3)cc2C(F)(F)F)CC1 [Example 60, 3-((8-((1-methyl-1H-pyrazol-4-yl)amino)imidazo[1,2-a]pyridin-3-yl)ethynyl)-N-(4-((4-methylpiperazin-1-yl)methyl)-3-(trifluoromethyl)phenyl)benzamide] | 1470 nM |  | > 10 nM |  | 289 nM | 229 nM | < 1 nM | 34.8 nM |  |  |  | 21.3 nM | 
CN1CCN(Cc2ccc(NC(=O)c3ccc(F)c(C#Cc4cnc5c(Nc6cnn(C)c6)cccn45)c3)cc2C(F)(F)F)CC1 [Example 61, 4-fluoro-3-((8-((1-methyl-1H-pyrazol-4-yl)amino)imidazo[1,2-a]pyridin-3-yl)ethynyl)-N-(4-((4-methylpiperazin-1-yl)methyl)-3-(trifluoromethyl)phenyl)benzamide] | 1170 nM |  | > 10 nM |  | 268 nM | 172 nM | < 1 nM | 58.6 nM |  |  |  | 45.3 nM | 
Cc1ccc(NC(=O)c2ccc(CN3CCN(C)CC3)c(C(F)(F)F)c2)cc1C#Cc1cnc2c(Nc3cnn(C)c3)cccn12 [Example 80, N-(4-methyl-3-((8-((1-methyl-1H-pyrazol-4-yl)amino)imidazo[1,2-a]pyridin-3-yl)ethynyl)phenyl)-4-((4-methylpiperazin-1-yl)methyl)-3-(trifluoromethyl)benzamide] | 1870 nM | 89 nM |  |  | 320 nM | 132 nM | < 1 nM | 82.4 nM |  |  |  | 46 nM | 
Cc1ccc(NC(=O)Nc2cc(C(C)(C)C)on2)cc1C#Cc1cnc2c(Nc3cnn(C(C)C)c3)cccn12 [Example 84, 1-(5-(tert-butyl)isoxazol-3-yl)-3-(3-((8-((1-isopropyl-1H-pyrazol-4-yl)amino)imidazo[1,2-a]pyridin-3-yl)ethynyl)-4-methylphenyl)urea] |  | 5650 nM | 1000 nM | 4460 nM | > 10000 nM | 5040 nM | 90 nM | 3070 nM |  |  |  | 1610 nM | 
N-(4-((3-(dimethylamino)pyrrolidin-1-yl)methyl)-3-(trifluoromethyl)phenyl)-4-methyl-3-((8-((1-methyl-1H-pyrazol-4-yl)amino)imidazo[1,2-a]pyridin-3-yl)ethynyl)benzamide [Example 55] | 5600 nM |  |  |  |  |  |  | 97.5 nM |  | 791 nM | < 1 nM |  | 755 nM
